Experimental data from patent publication US9802880B2, “Cannabigerol derivatives” (VIVACELL BIOTECHNOLOGY ESPAÑA S.L., priority 2014, dated 2017).

Columns and labels:
[1] = system: N2a cells; assay: Cytotoxicity, MTT assay, N2a cells; assay type: cell-based; conditions: 24 h, FIG. 3A
Procedure: (§1) The cell lines N2a (A), HT22 (B) and MO3.13 (C) cells were incubated for 24 h with the indicated doses of CBG-Q (Compound I) versus compounds II to XII, and cell viability was quantified by MTT assay. […] Control was set as 100% and data were referred to that value.
(§2) Electrophilic quinones induce cytotoxicity and activate the Nrf2 pathway, a cellular sensor of reactive oxygen species generation. In FIG. 3 it is analyzed the induced cell death in three different types of cells (N2a, HT22 and MO3.13) by compounds CBG-Q (compound I) and compounds (II) to (XII).
(§3) N2A, HT22 and MO3.13 cell viability was determined by the MTT assay. Briefly, cells were seeded at a density of 10^4 cells/well in 96-well plates, 200 μl cell suspension per well, and cultured for 24 hours. Cells were then incubated with several concentrations of the compounds for 24 hours. […] Finally the absorbance was measured at 550 nm using a TriStar LB 941 (Berthold Technologies, GmbH & Co. KG). […] The cell lines N2a (FIG. 3A), HT22 (FIG. 3B) and MO3.13 (FIG. 3C) cells were incubated for 24 h with the indicated doses of compounds CBG-Q (compound I) and compounds (II) to (XII), and cell viability was quantified by MTT assay. Results are shown as mean±S.D. from at least three independent experiments, and expressed as percentage of cell viability against the control sample (−). […]

[2] = system: 3NP-lesioned mice; assay: Huntington's disease 3NP model, behavioral score; assay type: in vivo, C57BL/6 mice; conditions: 10 mg/kg i.p., four injections, FIG. 9
Procedure: Mice were subjected to behavioral tests for determining their neurological status after the treatment with compounds I (10 mg/kg) (A), III (10 mg/kg) (B) and XII (10 mg/kg) (C). Hind limb clasping, Locomotor activity, Hind limb dystonia and Truncal Dystonia were rated from 0 to 2 based on severity: a score of 0 typically indicates normal function and 2 seriously affected. Values are expressed as means±SEM for 8 animals per group.
Lesions of the striatum were induced with 3-NP in adult (16 week old; 30 g) male C57BL/6 mice (Harlan Ibérica, Barcelona, Spain). To this end, mice were subjected to seven intraperitoneal (i.p.) injections of 3NP (one injection each 12 hours) at a dose of 50 mg/kg (prepared in phosphate-buffered saline) for 3 days. These animals and their respective non-lesioned controls were used for pharmacological studies with compounds CBG-Q (compound I) and with compounds III and XII (FIG. 9). At least 6-8 animals were used per experimental group. Treatments consisted of four i.p. injections of the compounds at the indicated doses (one injection each 24 hours), or vehicle (DMSO 0.2%, BSA 5% in PBS) 30 min before the injections of 3NP. All animals were euthanized 12 hours after the last 3NP injection. Once euthanized, animals were dissected and their brains were rapidly removed. The right hemisphere was used to dissect the striatum, which was quickly frozen in RNAlater (Sigma-Aldrich, Germany) to analyzed inflammatory markers were by Real Time PCR. The left hemisphere was fixed in fresh 4% paraformaldehyde (in 0.1M phosphate buffered-saline) for 48 hours at 4° C. and embedded in paraffin wax for histological analysis. Mice were subjected to behavioral tests for determining their neurological status. We evaluated the general locomotor activity, the hindlimb clasping and dystonia, and the truncal dystonia. All behavioral tests were conducted prior to drug injections to avoid acute effects of the compounds under investigation.

[3] = system: Nrf2; assay: Nrf2 transcriptional assay in HaCaT-ARE-Luc cells; assay type: cell-based; conditions: 6 h, FIG. 4
Procedure: HaCaT-ARE-Luc cells were incubated for 6 h with compounds CBG-Q compound I) and with compounds I to VI (A) or with compounds VII to XII (B) at the indicated concentrations, and protein lysates were prepared and analysed for luciferase activity. The pro-oxidant tert-Butylhydroquinone (tBHQ) at 20 μM, a compound that induces cellular oxidative stress, was used as positive control. […] The results ratify that the reactive electrophilic activity associated to CBG-Q (compound I) is missing in all the compounds (derivatives in position 2) described in the present invention.
To study the activity of the compounds on the Nrf2 pathway we generated the HaCaT-ARE-Luc cell line. Nqo1 ARE-Luc reporter plasmid and pPGK-Puro plasmid were co-transfected into HaCat cells using Lipofectamine© 2000 transfection reagent (Life Technologies, Carlsbad, Ca, USA). Stable transformants were selected and maintained in RPMI 1640 containing 10% FBS, 1% penicillin-streptomycin and […] puromycin. HaCaT-ARE-Luc cells were incubated for 6 h with CBG-Q (compound I) and with compounds (II)-(VI) (A) or with compounds (VII)-(XII) (B) at the indicated concentrations, and protein lysates were prepared and analysed for luciferase activity as described in example 1. The prooxidant tert-Butylhydroquinone (tBHQ) at 20 μM was used as positive control. […]

[4] = system: HT22 cells; assay: Cytotoxicity, MTT assay, HT22 cells; assay type: cell-based; conditions: 24 h, FIG. 3B
Procedure: as §1, §2, §3

[5] = system: MO3.13 cells; assay: Cytotoxicity, MTT assay, MO3.13 cells; assay type: cell-based; conditions: 24 h, FIG. 3C
Procedure: as §1, §2, §3

SMILES: CCCCCC1=CC(=O)C(C/C=C(\C)CCC=C(C)C)=C(O)C1=O [CBG-Q, Cannabigerol hydroxy quinone]
- cytotoxic activity (cell viability, MTT) [1]: cytotoxic activity
- clinical symptoms induced by 3-NP intoxication (hind limb clasping, locomotor activity, hind limb dystonia, truncal dystonia) [2]: unable to prevent the clinical symptoms
- Nrf2 activation (ARE-luciferase activity; reactive electrophilic activity) [3]: induces activation
- cytotoxic activity (cell viability, MTT) [4]: cytotoxic activity
- cytotoxic activity (cell viability, MTT) [5]: cytotoxic activity
